Experiments:
[1] = test system: mRNA expressed from the genes (A) to (D) in rat liver; assay: Behavior of genes (mRNA expression level, oligo-DNA microarray) in rat liver after 28-day oral administration; format: in vivo; settings: mRNA vs vehicle control group
Procedure, shortened: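 Liver mRNA measured by oligo-DNA microarray after 28 days of once-daily oral gavage in 5-week-old male F344 rats (n=4 per group), with vehicle controls given equal solvent volume. Significance threshold: 1.5-fold up or down versus control, with changes opposite in direction to other carcinogens counted as not significant.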

[2] = test system: liver; settings: in vivo; cited from earlier work
[3] = test system: rodent; settings: in vivo; cited from earlier work
[4] = gene group (A), Unigene No. Rn.167075
[5] = gene group (C), Unigene No. Rn.120914

With `c1ccc2cc3c(ccc4ccccc43)cc2c1` [TS046, Benz[a]anthracene] the “Behavior of gene caused by administration of chemical substance, Gene No. 4846” value ([1]; gene group (A), Unigene No. Rn.144554) was “−”, the “Behavior of gene caused by administration of chemical substance, Gene No. 2026” value [1, 4] was “+” and the “Behavior of gene caused by administration of chemical substance, Gene No. 4218” value [1, 4] was “−”. For the same compound, the “Behavior of gene caused by administration of chemical substance, Gene No. 6182” value ([1]; gene group (A), Unigene No. Rn.5834) was “+”, the “Behavior of gene caused by administration of chemical substance, Gene No. 5600” value ([1]; gene group (A), Unigene No. Rn.9836) was “−” and the “Behavior of gene caused by administration of chemical substance, Gene No. 1494” value ([1]; gene group (B), Unigene No. Rn.1430) was “−”. For the same compound, the “Behavior of gene caused by administration of chemical substance, Gene No. 2045” value ([1]; gene group (B), Unigene No. Rn.19329) was “−”, the “Behavior of gene caused by administration of chemical substance, Gene No. 2203” value ([1]; gene group (B), Unigene No. Rn.21240) was “+” and the “Behavior of gene caused by administration of chemical substance, Gene No. 533” value ([1]; gene group (C), Unigene No. Rn.106184) was “−”. The “Behavior of gene caused by administration of chemical substance, Gene No. 725” value ([1]; gene group (C), Unigene No. Rn.108075) was “+”, the “Behavior of gene caused by administration of chemical substance, Gene No. 1163” value ([1]; gene group (C), Unigene No. Rn.11766) was “+” and the “Behavior of gene caused by administration of chemical substance, Gene No. 4973” value ([1]; gene group (C), Unigene No. Rn.118529) was “+”. The “Behavior of gene caused by administration of chemical substance, Gene No. 4095” value ([1]; gene group (C), Unigene No. Rn.119024) was “+”, the “Behavior of gene caused by administration of chemical substance, Gene No. 1334” value [1, 5] was “−” and the “Behavior of gene caused by administration of chemical substance, Gene No. 6620” value [1, 5] was “−”. The “Behavior of gene caused by administration of chemical substance, Gene No. 6303” value ([1]; gene group (C), Unigene No. Rn.123063) was “−”, the “Behavior of gene caused by administration of chemical substance, Gene No. 5878” value ([1]; gene group (C), Unigene No. Rn.143213) was “+” and the “Behavior of gene caused by administration of chemical substance, Gene No. 1131” value ([1]; gene group (C), Unigene No. Rn.144946) was “+”. For the same compound, the “Behavior of gene caused by administration of chemical substance, Gene No. 1562” value ([1]; gene group (C), Unigene No. Rn.14744) was “−”, the “Behavior of gene caused by administration of chemical substance, Gene No. 1741” value ([1]; gene group (C), Unigene No. Rn.1647) was “+” and the “Behavior of gene caused by administration of chemical substance, Gene No. 893” value ([1]; gene group (C), Unigene No. Rn.164817) was “+”. The “Behavior of gene caused by administration of chemical substance, Gene No. 6026” value ([1]; gene group (C), Unigene No. Rn.167685) was “−”, the “Behavior of gene caused by administration of chemical substance, Gene No. 154” value ([1]; gene group (C), Unigene No. Rn.185941) was “+” and the “Behavior of gene caused by administration of chemical substance, Gene No. 1993” value ([1]; gene group (C), Unigene No. Rn.18728) was “+”. For the same compound, the “Behavior of gene caused by administration of chemical substance, Gene No. 813” value ([1]; gene group (C), Unigene No. Rn.201760) was “+”, the “Behavior of gene caused by administration of chemical substance, Gene No. 2494” value ([1]; gene group (C), Unigene No. Rn.23969) was “−” and the “Behavior of gene caused by administration of chemical substance, Gene No. 2546” value ([1]; gene group (C), Unigene No. Rn.24561) was “+”. For the same compound, the “Behavior of gene caused by administration of chemical substance, Gene No. 3776” value ([1]; gene group (C), Unigene No. Rn.43232) was “+”, the “Behavior of gene caused by administration of chemical substance, Gene No. 3929” value ([1]; gene group (C), Unigene No. Rn.4620) was “−” and the “Behavior of gene caused by administration of chemical substance, Gene No. 1119” value ([1]; gene group (C), Unigene No. Rn.9757) was “+”. The “Behavior of gene caused by administration of chemical substance, Gene No. 6742” value ([1]; gene group (C), Unigene No. Rn.9779) was “+”, the “Behavior of gene caused by administration of chemical substance, Gene No. 5634” value ([1]; gene group (C), Unigene No. Rn.9862) was “+” and the “Behavior of gene caused by administration of chemical substance, Gene No. 5726” value ([1]; gene group (D), Unigene No. Rn.9939) was “+”. For the same compound, the Liver carcinogenicity [2] was “Cr−” and the Carcinogenicity [3] was “C+”.

Reference: US20110039721A1, “METHOD FOR PREDICTION ABOUT CARCINOGENICITY OF SUBSTANCE IN RODENT” (Chemicals Evaluation and Research Institute, priority 2007, published 2011)
